For 30 compounds, EC50 and Ki results are on record in patent US11673894B2, “Imidazopyrimidines and triazolopyrimidines as A2A / A2B inhibitors” (Incyte Corporation, priority 2018, dated 2023).

The target of experiment [1] is human adenosine A2B receptor (Homo sapiens (Human), UniProt P29275). Kind of experiment: Adenosine A2B Receptor Cyclic AMP GS Assay. It counts as cell-based. The note with it: HEK-293 cells expressing human A2B receptor; agonist NECA at 12 nM; cAMP accumulation (FRET); read-out: A2B_cAMP_EC50. The protocol: Stably transfected HEK-293 cells expressing the human adenosine A2B receptor (Perkin Elmer) were maintained in MEM culture medium with 10% FBS and 100 μg/ml Geneticin (Life Technologies). 18 to 24 hours prior to assay, geneticin was removed from culture. The cisbio cAMP-GS Dynamic kit utilizing the FRET (Fluorescence Resonance Energy Transfer) technology was used to measure cAMP accumulation in the cells. Compounds of the present disclosure at an appropriate concentration were mixed with 10000 cells/well in white 96 well half area plates (Perkin Elmer) for 30 min at RT gently shaking. Agonist, NECA (R&D Technologies) at 12 nM was added to each well for 60 min at RT gently shaking. Detection reagents, d2-labeled cAMP (acceptor) and anti-cAMP cryptate (donor) were added to each well for 60 min at RT gently shaking. Plates were read on Pherastar (BMG Labtech), fluorescence ratio 665/620 was calculated and EC50 determination was performed by fitting the curve of percent of control versus the log of the compound concentration using GraphPad Prism.

The target of another experiment is Adenosine A2A receptor (Homo sapiens (Human), UniProt P29274). Kind of experiment: A2A Tag-lite HTRF Assay. The note with it: Tag-lite Adenosine A2A labeled cells; A2A Receptor Red antagonist fluorescent ligand 12.5 nM; one-site competitive binding model; read-out: A2A_Ki. The text has this:
The final concentration of DMSO was 1%.
On the technique in general: In TR-FRET formats the signal depends on donor and acceptor labels being close together.

SMILES strings stand for the structures. Some results are limits rather than exact numbers.

Sequence of human adenosine A2B receptor (P29275 whole entry): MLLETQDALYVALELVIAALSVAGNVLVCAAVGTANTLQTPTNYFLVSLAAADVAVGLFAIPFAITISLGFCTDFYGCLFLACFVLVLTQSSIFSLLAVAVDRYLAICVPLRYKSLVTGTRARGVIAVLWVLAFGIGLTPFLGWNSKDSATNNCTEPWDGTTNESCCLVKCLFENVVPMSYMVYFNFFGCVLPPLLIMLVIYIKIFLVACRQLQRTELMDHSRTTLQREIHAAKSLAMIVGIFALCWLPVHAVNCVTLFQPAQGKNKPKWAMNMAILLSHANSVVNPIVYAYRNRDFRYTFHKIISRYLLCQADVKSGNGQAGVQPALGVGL
Sequence of Adenosine A2A receptor (P29274 whole entry): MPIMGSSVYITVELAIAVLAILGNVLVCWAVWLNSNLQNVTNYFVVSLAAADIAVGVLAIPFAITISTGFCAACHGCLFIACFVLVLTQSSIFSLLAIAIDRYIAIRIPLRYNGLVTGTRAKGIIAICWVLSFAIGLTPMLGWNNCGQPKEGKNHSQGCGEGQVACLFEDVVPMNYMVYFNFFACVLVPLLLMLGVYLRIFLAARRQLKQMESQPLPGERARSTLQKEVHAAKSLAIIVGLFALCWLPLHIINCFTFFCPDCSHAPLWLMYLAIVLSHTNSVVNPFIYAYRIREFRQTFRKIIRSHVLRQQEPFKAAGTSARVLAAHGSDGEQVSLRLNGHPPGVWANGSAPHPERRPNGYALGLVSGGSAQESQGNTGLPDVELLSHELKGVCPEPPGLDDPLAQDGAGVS

Turning to `N#Cc1cccc(-c2nc(N)n3nc(C(O)c4c(F)cccc4F)nc3c2-c2ccncn2)c1` (single isomer, unassigned) [Example 76, 3-(5-Amino-2-((2,6-difluorophenyl)(hydroxy)methyl)-8-(pyrimidin-4-yl)-[1,2,4]triazolo[1,5-c]pyrimidin-7-yl)benzonitrile], the EC50 in experiment [1] is less than 0.01 µM. For `N#Cc1cccc(-c2nc(N)n3nc(C(O)c4c(F)cccc4F)nc3c2-c2ccncn2)c1` (single isomer, unassigned) [Example 77, 3-(5-Amino-2-((2,6-difluorophenyl)(hydroxy)methyl)-8-(pyrimidin-4-yl)-[1,2,4]triazolo[1,5-c]pyrimidin-7-yl)benzonitrile], in experiment [1], the EC50 is 0.01 to 0.1 µM.

On to `Cc1cc(-c2c(-c3cccc(C#N)c3)nc(N)n3ccnc23)cc(C)n1` [Example 1, 3-(5-Amino-8-(2,6-dimethylpyridin-4-yl)imidazo[1,2-c]pyrimidin-7-yl)benzonitrile], for which the Ki at Adenosine A2A receptor is less than 0.01 µM. The EC50 in experiment [1] was in the range of 0.1 to 1 µM. Consider `Cc1cc(-c2c(-c3cnc4c(c3)CCN4)nc(N)n3ccnc23)cc(C)n1` [Example 2, 7-(2,3-Dihydro-1H-pyrrolo[2,3-b]pyridin-5-yl)-8-(2,6-dimethylpyridin-4-yl)imidazo[1,2-c]pyrimidin-5-amine], for which, at Adenosine A2A receptor, the Ki is 0.1 to 1 µM. Still for that read-out and setting: the value for `Cc1cc(-c2c(-c3ccccc3)nc(N)n3c(CN4CCOCC4)cnc23)cc(C)n1` [Example 3, 8-(2,6-Dimethylpyridin-4-yl)-3-(morpholinomethyl)-7-phenylimidazo[1,2-c]pyrimidin-5-amine] was 0.01 to 0.1 µM. As for `COc1cccc(-c2nc(N)n3ccnc3c2-c2ccncc2)c1` [Example 4, 7-(3-Methoxyphenyl)-8-(pyridin-4-yl)imidazo[1,2-c]pyrimidin-5-amine], the Ki at Adenosine A2A receptor is less than 0.01 µM. Also, the EC50 in experiment [1] is less than 0.01 µM. Consider `Nc1nc(-c2ccncc2)c(-c2ccncc2)c2nccn12` [Example 5, 7,8-Di(pyridin-4-yl)imidazo[1,2-c]pyrimidin-5-amine], for which the Ki at Adenosine A2A receptor was 0.01 to 0.1 µM. Moreover, the EC50 in experiment [1] lay within 0.01 to 0.1 µM. `Cc1occc1-c1nc(N)n2ccnc2c1-c1ccncc1` [Example 6, 7-(2-Methylfuran-3-yl)-8-(pyridin-4-yl)imidazo[1,2-c]pyrimidin-5-amine]: the Ki at Adenosine A2A receptor was 0.01 to 0.1 µM. Regarding `Nc1nc(-c2ccccc2F)c(-c2ccncc2)c2nccn12` [Example 7, 7-(2-Fluorophenyl)-8-(pyridin-4-yl)imidazo[1,2-c]pyrimidin-5-amine], the Ki at Adenosine A2A receptor lay within 0.01 to 0.1 µM. Besides, the EC50 in experiment [1] lay within 0.01 to 0.1 µM. In the case of `Nc1nc(-c2cc3ccccc3o2)c(-c2ccncc2)c2nccn12` [Example 8, 7-(Benzofuran-2-yl)-8-(pyridin-4-yl)imidazo[1,2-c]pyrimidin-5-amine], the Ki at Adenosine A2A receptor lay within 0.1 to 1 µM. On the same count and under the same terms, the value for `Cc1cc(-c2c(-c3cnn(C)c3)nc(N)n3ccnc23)ccn1` [Example 9, 7-(1-Methyl-1H-pyrazol-4-yl)-8-(2-methylpyridin-4-yl)imidazo[1,2-c]pyrimidin-5-amine] was 0.01 to 0.1 µM.

Regarding `Cc1cc(-c2c(-c3ccccc3)nc(N)n3cc(-c4ccccc4)nc23)ccn1` [Example 10, 8-(2-Methylpyridin-4-yl)-2,7-diphenylimidazo[1,2-c]pyrimidin-5-amine], the Ki on Adenosine A2A receptor is less than 0.01 µM. Also, in experiment [1], the EC50 lay in the range of 0.1 to 1 µM. On to `CCOC(=O)c1cn2c(N)nc(-c3ccccc3)c(-c3ccnc(C)c3)c2n1` [Example 11, Ethyl 5-amino-8-(2-methylpyridin-4-yl)-7-phenylimidazo[1,2-c]pyrimidine-2-carboxylate], for which the Ki at Adenosine A2A receptor was in the range of 0.01 to 0.1 µM. On to `COC(=O)c1cc(-c2cn3c(N)nc(-c4ccccc4)c(-c4ccncc4)c3n2)on1` [Example 12, Methyl 5-(5-amino-7-phenyl-8-(pyridin-4-yl)imidazo[1,2-c]pyrimidin-2-yl)isoxazole-3-carboxylate], for which the Ki at Adenosine A2A receptor was in the range of 0.01 to 0.1 µM.

For `CCOc1ccc(-c2cnc3c(-c4ccnc(C)c4)c(-c4ccccc4)nc(N)n23)cc1` [Example 13, 3-(4-Ethoxyphenyl)-8-(2-methylpyridin-4-yl)-7-phenylimidazo[1,2-c]pyrimidin-5-amine], the Ki on Adenosine A2A receptor fell in the range of 0.01 to 0.1 µM.

Take `Cc1cc(-c2c(-c3ccccc3)nc(N)n3cc(C(N)=O)nc23)ccn1` [Example 14, 5-Amino-8-(2-methylpyridin-4-yl)-7-phenylimidazo[1,2-c]pyrimidine-2-carboxamide]: the Ki on Adenosine A2A receptor is less than 0.01 µM. For the same compound, in experiment [1], the EC50 was 0.01 to 0.1 µM. Taken in the same sequence, the figures for `CCNC(=O)c1cn2c(N)nc(-c3ccccc3)c(C3=CCN(C(N)=O)CC3)c2n1` [Example 15, 5-Amino-8-(1-carbamoyl-1,2,3,6-tetrahydropyridin-4-yl)-N-ethyl-7-phenylimidazo[1,2-c]pyrimidine-2-carboxamide] were less than 0.01 µM and 0.1 to 1 µM. Taken in the same sequence, the figures for `CCNC(=O)c1cn2c(N)nc(-c3ccccc3)c(C3CCN(C(N)=O)CC3)c2n1` [Example 16, 5-Amino-8-(1-carbamoylpiperidin-4-yl)-N-ethyl-7-phenylimidazo[1,2-c]pyrimidine-2-carboxamide] were less than 0.01 µM and 0.1 to 1 µM. The like results for `CCNC(=O)c1nc2c(-c3ccnc(OC)c3)c(-c3cccc(C#N)c3)nc(N)n2c1OCCO` [Example 17, 5-Amino-7-(3-cyanophenyl)-JV-ethyl-3-(2-hydroxyethoxy)-8-(2-methoxypyridin-4-yl)imidazo[1,2-c]pyrimidine-2-carboxamide] were, in that order, less than 0.01 µM and 0.01 to 0.1 µM. With `CCNC(=O)c1nc2c(-c3ccnc(OC)c3)c(-c3cccc(C#N)c3)nc(N)n2c1C` [Example 18, 5-Amino-7-(3-cyanophenyl)-N-ethyl-8-(2-methoxypyridin-4-yl)-3-methylimidazo[1,2-c]pyrimidine-2-carboxamide], the Ki at Adenosine A2A receptor fell in the range of 0.01 to 0.1 µM. Further, the EC50 in experiment [1] was 0.01 to 0.1 µM. On to `CCNC(=O)c1nc2c(-c3ccnc(OC)c3)c(-c3cccc(C#N)c3)nc(N)n2c1-c1ccccn1` [Example 19, 5-Amino-7-(3-cyanophenyl)-N-ethyl-8-(2-methoxypyridin-4-yl)-3-(pyridin-2-yl)imidazo[1,2-c]pyrimidine-2-carboxamide], for which the Ki on Adenosine A2A receptor was less than 0.01 µM. Further, the EC50 in experiment [1] lay in the range of 0.1 to 1 µM. For the compound `CCNC(=O)c1nc2c(-c3cc(C)nc(C)c3)c(-c3ccccc3)nc(N)n2c1Br` [Example 20, 5-Amino-3-bromo-8-(2,6-dimethylpyridin-4-yl)-N-ethyl-7-phenylimidazo[1,2-c]pyrimidine-2-carboxamide], the Ki at Adenosine A2A receptor was less than 0.01 µM. Also, the EC50 in experiment [1] was in the range of 0.1 to 1 µM.

Turning to `CCNC(=O)c1nc2c(-c3cc(C)nc(C)c3)c(-c3ccccc3)nc(N)n2c1C#N` [Example 21, 5-Amino-3-cyano-8-(2,6-dimethylpyridin-4-yl)-N-ethyl-7-phenylimidazo[1,2-c]pyrimidine-2-carboxamide], the Ki on Adenosine A2A receptor is less than 0.01 µM. The EC50 in experiment [1] was more than 1 µM.

As to `CCNC(=O)c1cn2c(NCC)nc(-c3ccccc3)c(-c3cc(C)nc(C)c3)c2n1` [Example 22, 8-(2,6-Dimethylpyridin-4-yl)-N-ethyl-5-(ethylamino)-7-phenylimidazo[1,2-c]pyrimidine-2-carboxamide], the Ki at Adenosine A2A receptor was 0.01 to 0.1 µM. Also, the EC50 in experiment [1] was more than 1 µM. Turning to `CCNC(=O)c1cn2c(N)nc(-c3ccccc3)c(-c3cc(C)[n+]([O-])c(C)c3)c2n1` [Example 23, 4-(5-Amino-2-(ethylcarbamoyl)-7-phenylimidazo[1,2-c]pyrimidin-8-yl)-2,6-dimethylpyridine 1-oxide], the Ki at Adenosine A2A receptor is less than 0.01 µM. Consider `CCn1cc(-c2c(-c3cccc(C#N)c3)nc(N)n3cc(C(=O)N4CC(O)C4)nc23)ccc1=O` [Example 24, 3-(5-Amino-8-(1-ethyl-6-oxo-1,6-dihydropyridin-3-yl)-2-(3-hydroxyazetidine-1-carbonyl)imidazo[1,2-c]pyrimidin-7-yl)benzonitrile], for which the Ki on Adenosine A2A receptor was less than 0.01 µM. The EC50 in experiment [1] is less than 0.01 µM. Turning to `CCn1cc(-c2c(-c3cccc(C#N)c3)nc(N)n3cc(C(=O)Nc4cnn(CCO)c4)nc23)ccc1=O` [Example 25, 5-Amino-7-(3-cyanophenyl)-8-(1-ethyl-6-oxo-1,6-dihydropyridin-3-yl)-N-(1-(2-hydroxyethyl)-1H-pyrazol-4-yl)imidazo[1,2-c]pyrimidine-2-carboxamide], at Adenosine A2A receptor, the Ki is less than 0.01 µM. Moreover, the EC50 in experiment [1] lay in the range of 0.1 to 1 µM. For the compound `CCNC(=O)c1cn2c(N)nc(-c3cccc(C#N)c3)c(-c3ccncc3)c2n1` [Example 26, 5-Amino-7-(3-cyanophenyl)-N-ethyl-8-(pyridin-4-yl)imidazo[1,2-c]pyrimidine-2-carboxamide], the Ki on Adenosine A2A receptor was less than 0.01 µM. For the same compound, the EC50 in experiment [1] was less than 0.01 µM. `CCNC(=O)c1cn2c(N)nc(-c3cccc(C#N)c3)c(-c3ccncc3C)c2n1` [Example 27, 5-Amino-7-(3-cyanophenyl)-N-ethyl-8-(3-methylpyridin-4-yl)imidazo[1,2-c]pyrimidine-2-carboxamide]: the Ki on Adenosine A2A receptor is less than 0.01 µM. In addition, in experiment [1], the EC50 was in the range of 0.01 to 0.1 µM.

Consider `CCNC(=O)c1cn2c(N)nc(-c3cccc(C#N)c3)c(-c3ccncc3F)c2n1` [Example 28, 5-Amino-7-(3-cyanophenyl)-N-ethyl-8-(3-fluoropyridin-4-yl)imidazo[1,2-c]pyrimidine-2-carboxamide], for which the Ki at Adenosine A2A receptor was less than 0.01 µM. In experiment [1], the EC50 is less than 0.01 µM.
